Measurements as given in US8193173B2, “Liver function ameliorant” (Tokyo University of Agriculture and Technology TLO Co., Ltd., priority 2006, dated 2012).

Assays:
[1] = system: pulmonary embolism model rats; details: pulmonary embolism model rats in vivo; cited from earlier work
[2] = system: chronic hepatitis model mice; assay: Liver function ameliorative effects in chronic hepatitis model mice (carbon tetrachloride); plasma AST, ALT, ChE; type: in vivo, ICR mice
Description: Production of chronic hepatitis model mice was carried out according to a modified version of the method of Vogten et al. (J. Mathys Vogten et al., Int. J. Colorectal Dis. (2004), 19: 387-394).
ICR mice weighing about 30 g (age: 6 weeks, males, supplier: Sankyo Labo Service) were used in the experiment after preliminarily housing for 5 days while allowing free access to solid feed (Labo MR Stock) and distilled water. The animals were housed in an animal room set to conditions consisting of a temperature of 22±2° C., humidity of 60±5% and light-dark cycle of 12 hours.
Following preliminary housing, the animals were intraperitoneally administered carbon tetrachloride (10% corn oil solution (v/v)) three times a week. The initially dose was 330 μl/kg, the second dose was […], and all subsequent doses were 500 μl/kg. This administration was carried out over the course of six weeks to produce chronic hepatitis model mice.
After administering carbon tetrachloride for 6 weeks, the animals were divided into an orniplabin dose group and control group so as to be statistically equivalent (orniplabin dose group: 7 animals, control group: 6 animals). Orniplabin was continuously administered into the abdominal cavity at 10 mg/kg. The control group was continuously administered physiological saline into the abdominal cavity at 2 ml/kg. This procedure was carried out for 14 days.
Following completion of administration, blood samples were collected from the vena cava into a syringe barrel containing anticoagulant in the form of 3.8% sodium citrate solution ( 1/10 volume of collected blood), and the resulting blood was centrifuged immediately for 20 minutes at 3000 rpm to collect the supernatant for use as blood samples.
The levels of AST ([…], GOT), ALT (alanine aminotransferase, GPT) and ChE (cholinesterase) were measured for the resulting blood samples (Hitachi Model 7180 Autoanalyzer).

plasminogen [3] = target: T1, plasminogen (Homo sapiens, UniProt P00747); details: cited from earlier work
T1 sequence (P00747 20-810 limits assumed, species assumed): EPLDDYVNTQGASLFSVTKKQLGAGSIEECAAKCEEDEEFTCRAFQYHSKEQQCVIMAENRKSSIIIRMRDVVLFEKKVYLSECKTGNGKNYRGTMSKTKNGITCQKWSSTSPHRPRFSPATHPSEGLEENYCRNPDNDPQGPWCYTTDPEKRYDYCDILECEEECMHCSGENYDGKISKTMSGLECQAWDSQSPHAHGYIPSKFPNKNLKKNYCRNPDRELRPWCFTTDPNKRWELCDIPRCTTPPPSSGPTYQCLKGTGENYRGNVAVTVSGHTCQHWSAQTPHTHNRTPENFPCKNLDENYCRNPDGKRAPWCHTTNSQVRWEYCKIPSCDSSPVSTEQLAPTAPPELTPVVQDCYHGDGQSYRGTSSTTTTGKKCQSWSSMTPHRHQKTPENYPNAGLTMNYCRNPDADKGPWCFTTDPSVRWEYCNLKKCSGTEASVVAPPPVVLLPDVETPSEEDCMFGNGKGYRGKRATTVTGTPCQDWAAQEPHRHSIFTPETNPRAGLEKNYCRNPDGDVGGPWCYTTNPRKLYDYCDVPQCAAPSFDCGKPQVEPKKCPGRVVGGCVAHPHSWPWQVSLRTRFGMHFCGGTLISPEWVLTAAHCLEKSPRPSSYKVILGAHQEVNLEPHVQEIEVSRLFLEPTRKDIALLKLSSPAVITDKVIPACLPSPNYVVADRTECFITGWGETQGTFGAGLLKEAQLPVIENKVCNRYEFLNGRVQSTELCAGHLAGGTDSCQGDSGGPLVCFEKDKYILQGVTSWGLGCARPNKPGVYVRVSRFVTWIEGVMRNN

plasminogen [4] = target: T1, plasminogen; details: JP 2004-224737; cited from earlier work
[5] = 10 mg/kg into the abdominal cavity for 14 days, versus normal level

## CC(C)=CCC/C(C)=C/CCC1(C)Oc2c(c(O)cc3c2CN(CCCC(C(=O)O)N2Cc4c(cc(O)c5c4OC(C)(CC/C=C(\C)CCC=C(C)C)C(O)C5)C2=O)C3=O)CC1O (stereo not drawn) [orniplabin]
[1]
  dissolution of pulmonary embolisms thrombus: promotes dissolution of pulmonary embolisms thrombus
[2]; 10 mg/kg into the abdominal cavity for 14 days after 6 weeks carbon tetrachloride, FIG. 1
  plasma AST, orniplabin dose group as compared with the control group: significant (P<0.01) decrease
[2]; 10 mg/kg into the abdominal cavity for 14 days after 6 weeks carbon tetrachloride, FIG. 2
  plasma ALT, orniplabin dose group versus control group: no significant differences observed
[2]; 10 mg/kg into the abdominal cavity for 14 days after 6 weeks carbon tetrachloride, FIG. 3
  plasma ChE, orniplabin dose group as compared with the control group: significant (P<0.01) increase
[2]; 10 mg/kg into the abdominal cavity for 14 days, FIG. 2
  plasma ALT, orniplabin dose group as compared with the normal group: increases were not observed
[2]; [5]
  cholinesterase levels (protein synthesis ability of the liver): recovered to the same level as the normal level
  degree of impaired liver function (AST and ALT): recover to nearly the normal level
Plasminogen [3]
  binding of plasminogen to fibrin: promotes binding of plasminogen to fibrin
Plasminogen [4]
  plasminogen activation: promotes plasminogen activation
